Where “and” joins values, the source holds several entries; their conditions need not be identical. Identical values can stand only once.
Experiments:
Assay type in all cases: cell-based
RXFP2 = RXFP2 (Homo sapiens, UniProt Q8WXD0); assay: HTRF cAMP assay in HEK-RXFP2 cells (stably transfected; also primary HTS); parameters: FLAG (N); expressed in transfected cells; details: Fig. 1a, initial hit and enantiomers
Method: A quantitative high-throughput screening (HTS) of more than 80 K compounds of the NCATS/NIH diversity collection was performed at four concentrations in HEK293T cells stably expressing human RXFP2 to identify candidate agonists. A homogenous time resolved fluorescence (HTRF) assay was used to directly detect compound-induced cAMP accumulation, with forskolin or human recombinant INSL3 serving as positive controls. […] A confirmatory CRE-luciferase cAMP screen was used to eliminate any potential false positives due to assay detection artifacts (Supplementary Fig. 1a).
The cAMP response induced by the compounds was normalized to the cAMP response induced by 100 nM INSL3 as 100% efficacy and the cAMP response induced by DMSO vehicle as 0% efficacy. Emax and EC50 were calculated using four parameter nonlinear fit dose-response stimulation curves. […] Molecular weight (MW).
The HTRF Gs dynamic cAMP assay kit (CisBio, Bedford, MA) was used to measure intracellular cAMP accumulation in HEK293T cells (ATCC, Manassas, VA)[56]. […] The cell stock was verified mycoplasma free and authenticated by ATCC. Transient transfection was accomplished by treating cells in a 6-well plate with a mixture of 2 μg plasmid and 6 μL Lipofectamine 2000 (Invitrogen, Waltham, MA) per manufacturer’s protocol and incubating overnight. For cAMP measurement in 96-well format, HEK293T cells stably transfected with human RXFP2 (HEK-RXFP2), human RXFP1 (HEK-RXFP1), mouse Rxfp1 (HEK-Rxfp1) or transiently transfected with human RXFP1-RXFP2 chimeric receptors were seeded between 7500 and 30,000 cells per well, depending on cell line responsiveness, in serum-free DMEM medium and incubated overnight at 37 °C, 5% CO2. After 18 h, cells were treated with a titration of compound, 2 μM forskolin, or DMSO vehicle. Control wells were also treated with a titration of INSL3 (Phoenix Pharmaceuticals, Burlingame, CA) or human recombinant relaxin 2 (Peprotech, Cranbury, NJ). For the RXFP2 antagonist experiment, cells were co-treated with 0.28 μM compound or 30 nM INSL3 and a titration of the INSL3 B dimer antagonist[38],[39]. For the INSL3 allosteric modulation experiment, cells were co-treated with 0.025, 0.0025, or 0.00025 μM of compound and a titration of INSL3. Cells were incubated for 1 h at 37 °C, 5% CO2, and then kit cAMP-d2 and anti-cAMP antibody were added per manufacturer protocol. Plates were incubated for 1 h at room temperature and the signal was read on a CLARIOstar plate reader (BMG Labtech, Ortenberg, Germany) at 665 and 620 nm emission wavelengths.

human RXFP3 = target: T1, human RXFP3 (Homo sapiens, UniProt Q9NSD7); assay: GloSensor cAMP assay in RXFP3 transiently transfected HEK293T cells; details: for RLU (cAMP, raw): RXFP3, 0.1 µM isoproterenol, replicates (1)-(4)
T1 construct: host or cells: HEK293T (transient)
T1 sequence (Q9NSD7 1-469): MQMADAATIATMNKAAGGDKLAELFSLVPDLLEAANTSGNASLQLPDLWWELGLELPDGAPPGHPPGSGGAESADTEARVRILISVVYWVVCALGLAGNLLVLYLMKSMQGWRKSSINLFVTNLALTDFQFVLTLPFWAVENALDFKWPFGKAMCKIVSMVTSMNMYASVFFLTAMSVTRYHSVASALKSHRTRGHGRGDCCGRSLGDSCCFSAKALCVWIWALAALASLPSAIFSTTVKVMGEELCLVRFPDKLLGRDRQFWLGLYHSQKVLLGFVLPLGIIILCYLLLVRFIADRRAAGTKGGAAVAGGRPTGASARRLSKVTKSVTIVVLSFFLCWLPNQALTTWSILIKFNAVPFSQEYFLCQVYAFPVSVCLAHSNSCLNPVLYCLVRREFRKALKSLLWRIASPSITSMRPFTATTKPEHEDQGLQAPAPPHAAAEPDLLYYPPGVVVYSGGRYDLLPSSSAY

human RXFP4 = target: T2, human RXFP4 (Homo sapiens, UniProt Q8TDU9); assay: GloSensor cAMP assay in RXFP4 transiently transfected HEK293T cells; details: for RLU (cAMP, raw): RXFP4, 0.1 µM isoproterenol, replicates (1)-(4)
T2 construct: host or cells: HEK293T (transient)
T2 sequence (Q8TDU9 whole entry): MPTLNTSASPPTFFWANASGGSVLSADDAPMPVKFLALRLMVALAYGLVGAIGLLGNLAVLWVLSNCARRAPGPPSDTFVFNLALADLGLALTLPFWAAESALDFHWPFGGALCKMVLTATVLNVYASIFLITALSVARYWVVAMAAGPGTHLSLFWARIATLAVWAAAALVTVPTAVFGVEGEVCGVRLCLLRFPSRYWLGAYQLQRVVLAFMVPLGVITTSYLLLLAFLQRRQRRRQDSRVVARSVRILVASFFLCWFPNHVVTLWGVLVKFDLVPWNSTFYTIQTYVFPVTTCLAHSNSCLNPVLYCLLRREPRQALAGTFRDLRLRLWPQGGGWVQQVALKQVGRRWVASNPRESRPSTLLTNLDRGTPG

[1] = cAMP induced by 0.1 µM isoproterenol

RXFP2, sequence (Q8WXD0 whole entry): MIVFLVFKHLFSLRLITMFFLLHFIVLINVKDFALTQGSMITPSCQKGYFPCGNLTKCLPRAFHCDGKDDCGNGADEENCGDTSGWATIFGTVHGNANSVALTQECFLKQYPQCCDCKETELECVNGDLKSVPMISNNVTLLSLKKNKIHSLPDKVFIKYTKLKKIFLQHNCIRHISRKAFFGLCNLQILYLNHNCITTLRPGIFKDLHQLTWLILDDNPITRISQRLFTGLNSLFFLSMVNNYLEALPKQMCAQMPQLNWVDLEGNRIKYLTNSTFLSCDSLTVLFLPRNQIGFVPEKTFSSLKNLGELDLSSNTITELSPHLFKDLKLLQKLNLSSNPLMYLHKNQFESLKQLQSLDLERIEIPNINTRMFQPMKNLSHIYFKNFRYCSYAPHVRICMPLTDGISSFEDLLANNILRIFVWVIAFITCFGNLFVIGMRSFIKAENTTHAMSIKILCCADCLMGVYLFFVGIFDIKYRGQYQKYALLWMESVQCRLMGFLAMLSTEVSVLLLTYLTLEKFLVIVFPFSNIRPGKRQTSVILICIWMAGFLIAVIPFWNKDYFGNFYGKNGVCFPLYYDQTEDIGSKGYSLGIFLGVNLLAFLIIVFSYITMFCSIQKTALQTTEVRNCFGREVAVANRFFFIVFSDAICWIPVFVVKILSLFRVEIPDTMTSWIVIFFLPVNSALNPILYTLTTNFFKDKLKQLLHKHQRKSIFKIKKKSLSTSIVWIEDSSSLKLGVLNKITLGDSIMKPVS

O=C1Nc2ccc(-c3cccc(C(F)(F)F)c3)cc2C(=O)N2CCN(C(=O)COc3ccccc3)CC12 (centres unmarked) [compound 8685]
RXFP2 agonist activity in SAR scheme (Active / Inactive) (RXFP2): Active

O=C1Nc2ccc(-c3cccc(C(F)(F)F)c3)cc2C(=O)N2CCN(C(=O)COc3ccccc3)C[C@H]12 [compound 9940]
RXFP2 agonist activity in SAR scheme (Active / Inactive) (RXFP2): Inactive

O=C1Nc2ccc(-c3cccc(C(F)(F)F)c3)cc2C(=O)N2CCN(C(=O)COc3ccccc3)C[C@@H]12 [compound 9941]
RXFP2 agonist activity in SAR scheme (Active / Inactive) (RXFP2): Active

Relaxin 3 [reference compound]
RLU (cAMP, raw) (human RXFP3; Log [M] -6.52): 1192.27 RLU and 862.59 RLU and 949.473 RLU and 1055.99 RLU
RLU (cAMP, raw) (human RXFP3; Log [M] -7): 1047.66 RLU and 816.174 RLU and 793.561 RLU and 818.554 RLU
RLU (cAMP, raw) (human RXFP3; Log [M] -7.52): 956.019 RLU and 1042.31 RLU and 964.35 RLU and 906.626 RLU
RLU (cAMP, raw) (human RXFP3; Log [M] -8): 852.474 RLU and 715.01 RLU and 962.564 RLU and 860.21 RLU
RLU (cAMP, raw) (human RXFP3; Log [M] -8.52): 886.989 RLU and 845.333 RLU and 966.73 RLU and 845.928 RLU
RLU (cAMP, raw) (human RXFP3; Log [M] -9): 816.769 RLU and 926.264 RLU and 1003.03 RLU and 782.254 RLU
RLU (cAMP, raw) (human RXFP3; Log [M] -9.52): 998.865 RLU and 951.853 RLU and 1093.48 RLU and 960.779 RLU
RLU (cAMP, raw) (human RXFP3; Log [M] -10): 1300.57 RLU and 1261.3 RLU and 1319.62 RLU and 1454.11 RLU
RLU (cAMP, raw) (human RXFP3; Log [M] -10.52): 1602.51 RLU and 1583.63 RLU and 1833.56 RLU and 1666.69 RLU
RLU (cAMP, raw) (human RXFP3; Log [M] -11): 1772.4 RLU and 1591.93 RLU and 1761.07 RLU and 2392.31 RLU
RLU (cAMP, raw) (human RXFP3; Log [M] -11.52): 1947.57 RLU and 1934.74 RLU and 2203.54 RLU and 1701.42 RLU
RLU (cAMP, raw) (human RXFP3; Log [M] -12): 1918.12 RLU and 1736.15 RLU and 2144.65 RLU and 2026.1 RLU
activation of RXFP3 (cAMP inhibition) (human RXFP3; [1]): cAMP inhibition was induced
RLU (cAMP, raw) (human RXFP4; Log [M] -6.48): 1291.4 RLU and 1273.39 RLU and 1346.81 RLU and 1344.73 RLU
RLU (cAMP, raw) (human RXFP4; Log [M] -7): 1098.17 RLU and 1299.02 RLU and 1204.83 RLU and 1290.02 RLU
RLU (cAMP, raw) (human RXFP4; Log [M] -7.48): 1677.86 RLU and 1738.12 RLU and 1419.53 RLU and 1594.75 RLU
RLU (cAMP, raw) (human RXFP4; Log [M] -8): 1308.71 RLU and 1324.64 RLU and 953.421 RLU and 1409.83 RLU
RLU (cAMP, raw) (human RXFP4; Log [M] -8.48): 1529.65 RLU and 1656.39 RLU and 1650.16 RLU and 1971.52 RLU
RLU (cAMP, raw) (human RXFP4; Log [M] -9): 1954.9 RLU and 1829.54 RLU and 1896.03 RLU and 2124.58 RLU
RLU (cAMP, raw) (human RXFP4; Log [M] -9.48): 2502.74 RLU and 2781.85 RLU and 2785.32 RLU and 3087.98 RLU
RLU (cAMP, raw) (human RXFP4; Log [M] -10): 2794.2 RLU and 2602.12 RLU and 2925.02 RLU and 3021.06 RLU
RLU (cAMP, raw) (human RXFP4; Log [M] -10.48): 3431.68 RLU and 3104.99 RLU and 3415.8 RLU and 3651.73 RLU
RLU (cAMP, raw) (human RXFP4; Log [M] -11): 3106.51 RLU and 3181.37 RLU and 2993.83 RLU and 2959.05 RLU
RLU (cAMP, raw) (human RXFP4; Log [M] -11.48): 3672.91 RLU and 3117.85 RLU and 3373.45 RLU and 3185.15 RLU
RLU (cAMP, raw) (human RXFP4; Log [M] -12): 3273.63 RLU and 3139.78 RLU and 2622.54 RLU and 2913.68 RLU
activation of RXFP4 (cAMP inhibition) (human RXFP4; [1]): cAMP inhibition was induced
